Data as given in US20080038809A1, “ISOLATED LECTIN POLYPEPTIDES CONSISTING OF TRUNCATED […] UDP-GalNAc:POLYPEPTIDE N- ACETYLGALACTOSAMINYLTRANSFERASES” (GLYCOZYM APS, priority 2002, published 2008).
pIC50: −log10 of the molar value. Read-outs that look alike come from different tables or passages of the source.

Columns and labels:
[1] = test system: T, Tn and sialyl-Tn in HT-29 MTX cells; experiment: O-linked mucin carbohydrate structures T, Tn and sialyl-Tn in HT-29 MTX cells by immuno-histochemistry; type: cell-based, human; conditions: 5 mM, compared to controls
Excerpt: In order to evaluate GalNAcβ-benzyl as an inhibitor of mucin glycosylation and secretion we used the cultured colon carcinoma cells of mucin secreting phenotypes: HT-29 metotrexate (MTX) cells selected from the HT-29 cell line by culture in the presence of MTX (kind gift from G. Huet, France). The HT-29 MTX cells were selected to yield a goblet cell like phenotype with constitutive production of MUC5AC. In order to ensure proper goblet cell differentiation the HT29MTX cell line were continuously grown up to 21 days in the presence of 5 mM GalNAcα-benzyl, 5 mM GalNAcβ-benzyl, 5 mM GlcNAcα-benzyl and without inhibitor using culture conditions as described in Hennebicq-Reig et al. (Permanent exposure of mucin-secreting HT-29 cells to benzyl-N-acetyl-alpha-D-galactosaminide induces abnormal O-glycosylation of mucins and inhibits constitutive and stimulated MUC5AC secretion. Biochem J. 1998; 334:283-95). […] Furthermore the viscosity of the media from cells with and without inhibitor was evaluated using viscosity micro-measurement.

[2] = test system: core 1 α2-3sialyltransferase ST3Gal-I; conditions: cited from earlier work
[3] = target: human GalNAc-T2 (UDP-GalNAc:polypeptide N-acetylgalactosaminyltransferase T2), secreted soluble enzyme (sT2), wild type (Homo sapiens, UniProt Q10471); experiment: biochemical; conditions: read-out: Concentration required for 50% inhibition (IC50), binding to GalNAc-MUC1 glycopeptide
Procedure: (§1) The pH of 1 ml purified protein (0.3 mg/ml) in PBS was adjusted to pH 9 with 1 M NaOH and 40 μl N-hydroxy-succinimidobiotin (Sigma) dissolved in DMF (10 mg/ml) was added. The solution was mixed end-over-end for 2 hours at room temperature, and dialyzed three times against PBS and an equal volume of glycerol was added. The biotinylated proteins were stored at −20° C. in 50% glycerol until use.
(§2) Glycopeptides were purified by C-18 reverse phase HPLC. Peptides were custom synthesized by Neosystems (Strasbourg). Biotinylated Helix Pomatia lectin (HPA) was from KemEnTec (Denmark). Anti-MUC1 HMFG2 monoclonal antibody was a generous gift from Joyce Taylor-Papadimitriou.
(§3) Direct binding ELISA assay was developed as follows: Polystyrene microtiter plates (Maxisorb, Nunc, Denmark) were coated with peptides or enzymatically glycosylated glycopeptides in PBS overnight at 4° C. Plates were washed and blocked with 0.1% Tween20 and 0.2% BSA in PBS for 1 h at room temperature, followed by incubation with biotinylated proteins in PBS with 0.05% Tween20 for 2 h at room temperature. After four washes with PBS, plates were incubated with 1:2,000 dilution streptavidin-HRP (Sigma) in PBS for 30 min at room temperature and washed four times with PBS. […]

[4] = target: human GalNAc-T4 (UDP-GalNAc:polypeptide N-acetylgalactosaminyltransferase T4) isolated truncated lectin domain (T4ld), HIS-tagged, amino acid residues 405-578 o (Homo sapiens, UniProt Q8N4A0); experiment: biochemical; type: binding; conditions: read-out: Concentration required for 50% inhibition (IC50), binding to GalNAc-MUC1 glycopeptide
Excerpt: (§4) In order to minimize the size and functional complexity of GalNAc-transferase lectins to be used as probes for binding studies, we used multiple sequence alignment analysis to predict and design suitable expression constructs for isolated lectin domains (FIG. 2). In the present invention a direct binding assay was developed using isolated lectin domains of GalNAc-T4 and -T2 with minimal size (FIG. 5). […] The lectin Helix Pomatia (HP) was used as a control plant lectin with known binding specificity for […].
(§5) Direct binding ELISA assay was developed as follows: Polystyrene microtiter plates (Maxisorb, Nunc, Denmark) were coated with peptides or enzymatically glycosylated glycopeptides in PBS overnight at 4° C. Plates were washed and blocked with 0.1% Tween20 and 0.2% BSA in PBS for 1 h at room temperature, followed by incubation with biotinylated proteins in PBS with 0.05% Tween20 for 2 h at room temperature. After four washes with PBS, plates were incubated with 1:2,000 dilution streptavidin-HRP (Sigma) in PBS for 30 min at room temperature and washed four times with PBS. Development was performed with 0.5 mg/ml o-phenylenediamine and 0.02% H2O2 at room temperature for 15 min, and reaction stopped by adding 100 μl/well of 0.5 N H2SO4. Competitive inhibition assays were done at end-point titers of GalNAc-transferase proteins with one hour preincubations with inhibitor.
(§6) In binding studies using lectins without biotinylation antibodies to the HIS-tag and the T7-tag, or in some experiments antibodies raised to GalNAc-T2 and -T4 enzymes were used to detect binding.
(§7) Inhibition experiments were used to further define the binding specificity of GalNAc-T2 and -T4 secreted soluble enzymes as well as lectin domains compared to Helix Pomatia lectin (Table IV).
(§8) The ligand target used in this Example is a GalNAc-MUC1 glycopeptide produced enzymatically from synthetic peptides.

[5] = target: human GalNAc-T4 (UDP-GalNAc:polypeptide N-acetylgalactosaminyltransferase T4), secreted soluble enzyme (sT4), wild type (Homo sapiens, UniProt Q8N4A0); conditions: read-out: Concentration required for 50% inhibition (IC50), binding to GalNAc-MUC1 glycopeptide
Procedure: as §1, §2, §3

GalNAc-T2 lectin domain = target: T1, GalNAc-T2 lectin domain (Homo sapiens, UniProt Q10471); experiment: Inhibition of GalNAc-T2 lectin domain (T2ld) binding to GalNAc-MUC1 glycopeptide, ELISA
T1 construct: comprises amino acid residues 408-571 of GALNT2; made in house; host or cells: baculovirus (pAcGP67-A), virus made in Sf9, protein produced in High Five insect cells
T1 sequence (Q10471 408-571): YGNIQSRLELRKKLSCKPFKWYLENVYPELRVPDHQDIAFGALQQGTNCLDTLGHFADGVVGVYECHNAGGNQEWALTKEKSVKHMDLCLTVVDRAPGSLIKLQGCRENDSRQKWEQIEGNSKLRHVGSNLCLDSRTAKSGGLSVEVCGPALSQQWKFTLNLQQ
Procedure: as §5, §6, §7

[6] = target: T2, secreted soluble GalNAc-T2 (Homo sapiens, UniProt Q10471); experiment: Inhibition of secreted soluble GalNAc-T2 (sT2) binding to GalNAc-MUC1 glycopeptide, ELISA
T2 construct: 6xHis (N); thrombin cleavage site (N); T7 antibody site (N); made in house; host or cells: baculovirus (pAcGP67A), High Five insect cells
Procedure: as §5, §7

GalNAc-T4 lectin domain = target: T3, GalNAc-T4 lectin domain (Homo sapiens, UniProt Q8N4A0); experiment: Inhibition of GalNAc-T4 lectin domain (T4ld) binding to GalNAc-MUC1 glycopeptide, ELISA
T3 construct: comprises amino acid residues 405-578 of GALNT4; made in house; host or cells: baculovirus (pAcGP67-A), virus made in Sf9, protein produced in High Five insect cells
Procedure: as §5, §6, §7

[7] = target: T4, secreted soluble GalNAc-T4 (Homo sapiens, UniProt Q8N4A0); experiment: Inhibition of secreted soluble GalNAc-T4 (sT4) binding to GalNAc-MUC1 glycopeptide, ELISA
T4 construct: 6xHis (N); thrombin cleavage site (N); T7 antibody site (N); made in house; host or cells: baculovirus (pAcGP67A), High Five insect cells
Procedure: as §5, §7

[8] = target: Helix Pomatia lectin (HPA) (Helix pomatia, UniProt Q2F1K8); experiment: Inhibition of Helix Pomatia lectin (HPA) binding, ELISA
Procedure: as §2, §5, §7

[9] = test system: GalNAc-T2 and -T4 secreted soluble enzymes as well as lectin domains; experiment: Inhibition of GalNAc-transferase lectin binding to GalNAc-glycopeptides, statements on GalNAc-T2 and -T4 together; design: species or system human; conditions: enzymes and isolated lectins
Procedure: as §5
Lectins and antibodies to carbohydrates usually recognize the anomeric configuration of the sugar structures they bind.
as §7

[10] = target: human GalNAc-T4 (UDP-GalNAc:polypeptide N-acetylgalactosaminyltransferase T4) isolated truncated lectin domain (T4ld), HIS-tagged, amino acid residues 405-578 of GALNT4 (Homo sapiens, UniProt Q8N4A0); experiment: biochemical; type: binding; conditions: binding to GalNAc-MUC1 glycopeptide
Excerpt: as §4, §5, §6, §7, §8

T2 sequence (Q10471 52-571 limits assumed): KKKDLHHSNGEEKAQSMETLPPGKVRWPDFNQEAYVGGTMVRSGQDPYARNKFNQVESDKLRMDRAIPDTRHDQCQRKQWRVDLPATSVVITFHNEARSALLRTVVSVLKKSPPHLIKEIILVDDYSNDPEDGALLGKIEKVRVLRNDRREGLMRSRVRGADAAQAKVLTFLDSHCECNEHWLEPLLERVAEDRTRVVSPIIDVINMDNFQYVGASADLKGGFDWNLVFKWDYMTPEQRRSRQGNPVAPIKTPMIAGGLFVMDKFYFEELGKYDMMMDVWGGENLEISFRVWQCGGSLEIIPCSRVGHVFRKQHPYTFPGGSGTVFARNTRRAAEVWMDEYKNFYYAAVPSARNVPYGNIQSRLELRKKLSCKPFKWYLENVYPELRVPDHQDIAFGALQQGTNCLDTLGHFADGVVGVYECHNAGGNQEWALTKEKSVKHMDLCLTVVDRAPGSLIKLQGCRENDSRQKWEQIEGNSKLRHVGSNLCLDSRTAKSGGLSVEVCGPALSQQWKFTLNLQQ
Sequence of Helix Pomatia lectin (HPA) (Q2F1K8 entry or part of it): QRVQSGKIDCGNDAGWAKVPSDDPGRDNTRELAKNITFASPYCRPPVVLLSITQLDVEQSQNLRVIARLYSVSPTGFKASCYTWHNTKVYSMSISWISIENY
Sequence of human GalNAc-T2 (UDP-GalNAc:polypeptide N-acetylgalactosaminyltransferase T2), secreted soluble enzyme (sT2), wild type (Q10471 52-571 limits assumed): as the sequence (Q10471 52-571 limits assumed) above
T4 sequence (Q8N4A0 36-578 limits assumed): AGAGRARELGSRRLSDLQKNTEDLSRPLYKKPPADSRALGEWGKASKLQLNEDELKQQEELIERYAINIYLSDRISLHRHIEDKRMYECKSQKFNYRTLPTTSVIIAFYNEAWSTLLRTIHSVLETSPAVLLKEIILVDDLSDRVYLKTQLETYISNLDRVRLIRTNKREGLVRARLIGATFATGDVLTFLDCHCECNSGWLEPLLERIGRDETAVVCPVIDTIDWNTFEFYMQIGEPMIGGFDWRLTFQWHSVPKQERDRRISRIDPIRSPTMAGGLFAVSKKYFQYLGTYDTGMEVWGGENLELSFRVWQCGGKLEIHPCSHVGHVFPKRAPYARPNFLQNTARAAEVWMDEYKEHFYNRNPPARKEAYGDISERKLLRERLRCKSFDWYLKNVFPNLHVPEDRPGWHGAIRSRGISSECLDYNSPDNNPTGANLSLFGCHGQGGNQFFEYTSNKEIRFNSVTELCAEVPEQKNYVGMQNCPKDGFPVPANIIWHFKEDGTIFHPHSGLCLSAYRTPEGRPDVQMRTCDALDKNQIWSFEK
Sequence of human GalNAc-T4 (UDP-GalNAc:polypeptide N-acetylgalactosaminyltransferase T4), secreted soluble enzyme (sT4), wild type (Q8N4A0 36-578 limits assumed): as above
Sequence of human GalNAc-T4 (UDP-GalNAc:polypeptide N-acetylgalactosaminyltransferase T4) isolated truncated lectin domain (T4ld), HIS-tagged, amino acid residues 405-578 o (Q8N4A0 405-578): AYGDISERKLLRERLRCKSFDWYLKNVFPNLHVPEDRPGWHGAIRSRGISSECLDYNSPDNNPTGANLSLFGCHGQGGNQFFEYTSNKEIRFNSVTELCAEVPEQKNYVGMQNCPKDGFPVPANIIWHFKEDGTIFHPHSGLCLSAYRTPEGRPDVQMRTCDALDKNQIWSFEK
Sequence of human GalNAc-T4 (UDP-GalNAc:polypeptide N-acetylgalactosaminyltransferase T4) isolated truncated lectin domain (T4ld), HIS-tagged, amino acid residues 405-578 of GALNT4 (Q8N4A0 405-578): as above
T3 sequence (Q8N4A0 405-578): as above

For `CC(=O)N[C@H]1[C@H](OCc2ccccc2)O[C@H](CO)[C@@H](O)[C@@H]1O` [BzlβGlcNAc], which “O-linked mucin carbohydrate structures T, Tn and sialyl-Tn” value [1] is on record?
The value was “upregulated”.

For `CC(=O)N[C@H]1[C@@H](OCc2ccccc2)O[C@H](CO)[C@H](O)[C@@H]1O[C@@H]1O[C@H](CO)[C@H](O)[C@H](O)[C@H]1O` [Galβ1-3GalNAcα-benzyl], which “substrate for ST3Gal-I” value [2] is on record?
The value was “efficient substrate”.

With `CC(=O)N[C@H]1[C@@H](Oc2ccccc2)O[C@H](CO)[C@H](O)[C@@H]1O` [PhlαGalNAc] as the compound, how does the pIC50 [3] read?
Its pIC50 is 2.30.

What about the pIC50 [4] of the same compound?
Its pIC50 is 2.30.

And the pIC50 [5]?
Its pIC50 is 3.00.

With `CC(=O)N[C@H]1[C@@H](OP(=O)(O)OP(=O)(O)OC[C@H]2O[C@@H](n3ccc(=O)[nH]c3=O)[C@H](O)[C@@H]2O)O[C@H](CO)[C@H](O)[C@@H]1O` [UDPαGalNAc, UDP-N-acetylgalactosamine] as the compound, how does the pIC50 (GalNAc-T2 lectin domain) read?
The pIC50 was < 1.00.

And the pIC50 [6]?
Its pIC50 is 1.19.

What about the pIC50 (GalNAc-T4 lectin domain) of the same compound?
The pIC50 was 1.30.

And the pIC50 [7]?
Its pIC50 is 1.52.

And the “inhibition of Helix Pomatia binding, in words” value [8]?
The value was “strong inhibitor”.

What about the “inhibition of GalNAc-T2 and -T4 lectin mediated binding, in words” value [9] of the same compound?
Its value is “not a significant inhibitor”.

With `CC(=O)N[C@H]1[C@H](Oc2ccc([N+](=O)[O-])cc2)O[C@H](CO)[C@H](O)[C@@H]1O` [pNPβGalNAc] as the compound, how does the pIC50 (GalNAc-T2 lectin domain; read-out: T2ld: Concentration required for 50% inhibition (IC50)) read?
Its pIC50 is < 2.00.

And the pIC50 ([6]; read-out: sT2: Concentration required for 50% inhibition (IC50))?
The pIC50 was < 2.00.

And the pIC50 [10]?
The pIC50 was 2.10.
